Measurements as given in ChEMBL document CHEMBL6121065, “Targeting the "Undruggable": Small-Molecule Inhibitors of Proliferating Cell Nuclear Antigen (PCNA) in the Spotlight in Cancer Therapy” (J Med Chem, 2025).

How the values were obtained:
[1] = biological target: T1, Proliferating cell nuclear antigen (Homo sapiens, UniProt P12004); experiment: Inhibition of N-terminal 6His-tagged recombinant PCNA (unknown origin) extracted from Escherichia coli BL21 (DE3) by fluorescence based analysis
[2] = biological target: T1, Proliferating cell nuclear antigen; experiment: Binding affinity to N-terminal recombinant 6His-tagged PCNA (unknown origin) extracted from Escherichia coli BL21 (DE3) by fluorescence polarization assay
SK-N-AS [3] = experiment: Antiproliferative activity against human SK-N-AS cells assessed as reduction in cell viability incubated for 72 hrs by cell-titer Glo assay; format: functional, cell-based
SK-N-DZ = experiment: Antiproliferative activity against human SK-N-DZ cells; format: functional, cell-based
[4] = Antiproliferative activity against human SK-N-BE(2)-C cells; format: functional, cell-based
SH-SY5Y = experiment: Antiproliferative activity against human SH-SY5Y cells assessed as reduction in cell viability; format: functional, cell-based
SK-N-AS [5] = experiment: Anticancer activity against human SK-N-AS cells; format: functional, cell-based
Jurkat = experiment: Antiproliferative activity against human Jurkat cells assessed as reduction in cell growth measured for 48 hrs by MTT assay; format: functional, cell-based
HepG2 = experiment: Antiproliferative activity against human HepG2 cells assessed as reduction in cell growth measured for 48 hrs by MTT assay; format: functional, cell-based; settings: HepG2, 48 h
HCT-116 = experiment: Antiproliferative activity against human HCT-116 cells assessed as reduction in cell growth measured for 48 hrs by MTT assay; format: functional, cell-based; settings: HCT-116, 48 h
MCF7 = experiment: Antiproliferative activity against human MCF7 cells assessed as reduction in cell growth measured for 48 hrs by MTT assay; format: functional, cell-based; settings: MCF7, 48 h
HeLa [6] = experiment: Antiproliferative activity against human HeLa cells assessed as reduction in cell growth measured for 48 hrs by MTT assay; format: functional, cell-based
HeLa [7] = experiment: Antiproliferative activity against human HeLa cells assessed as reduction in cell viability incubated for 72 hrs by MTT assay; format: functional, cell-based
A673 = experiment: Antiproliferative activity against human A673 cells assessed as reduction in cell viability incubated for 72 hrs by MTT assay; format: functional, cell-based; settings: A673, 72 h
A549 = experiment: Antiproliferative activity against human A549 cells assessed as reduction in cell viability incubated for 72 hrs by MTT assay; format: functional, cell-based; settings: A549, 72 h

T1 sequence (P12004 whole entry): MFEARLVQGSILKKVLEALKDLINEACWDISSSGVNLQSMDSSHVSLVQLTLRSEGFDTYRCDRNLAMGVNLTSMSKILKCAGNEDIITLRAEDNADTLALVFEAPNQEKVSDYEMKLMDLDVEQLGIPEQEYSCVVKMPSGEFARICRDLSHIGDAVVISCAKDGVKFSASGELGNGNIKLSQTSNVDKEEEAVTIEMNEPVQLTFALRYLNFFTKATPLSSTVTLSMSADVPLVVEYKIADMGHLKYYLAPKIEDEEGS

Ki [2] [nM]	IC50 (SK-N-AS [3]) [nM]	SMILES	other results
1630	–	CNC(=O)CCc1cc(I)c(Oc2ccc(OC)cc2)c(I)c1	–
170	–	NC(=O)CN(Cc1ccc2c(c1)OCO2)C(=O)CN(CCO)C(=O)CN[C@H](CO)Cc1cc(I)c(Oc2ccc(O)cc2)c(I)c1	–
–	1100	O=C(CNC(=O)c1cccc2ccccc12)Nc1ccc(Oc2ccncc2)cc1	–
870	–	CS(=O)(=O)NC(=O)Cc1cc(I)c(Oc2ccc(O)cc2)c(I)c1	–
630	–	CCNC(=O)Cc1cc(I)c(Oc2ccc(O)cc2)c(I)c1	–
> 4810	–	COc1ccc(Oc2c(I)cc(CCC(=O)NS(C)(=O)=O)cc2I)cc1	–
110	–	N[C@H](CNC(=O)NC(=O)CCN1CCOCC1)Cc1cc(I)c(Oc2ccc(O)cc2)c(I)c1	IC50 [1]: 1200 nM
930	–	COc1ccc(S(=O)(=O)N[C@H](CO)Cc2cc(I)c(Oc3ccc(O)cc3)c(I)c2)cc1	–
–	> 30000	O=C(CNC(=O)c1cncc2ccccc12)Nc1ccc(Oc2ccncc2)cc1	–
3080	–	O=S(=O)(N[C@H](CO)Cc1cc(I)c(Oc2ccc(O)cc2)c(I)c1)c1ccc(O)cc1	–
–	156	O=C(CNC(=O)c1cccc2ccccc12)Nc1ccccc1Oc1ccc(O)cc1	IC50 (SK-N-DZ): 467 nM; IC50 [4]: 490 nM
600	–	O=C(Cc1cc(I)c(Oc2ccc(O)cc2)c(I)c1)N1CCOCC1	–
–	34000	O=C(CNC(=O)c1nccc2ccccc12)Nc1cccc(Oc2ccncc2)c1	–
173	–	Cc1cc(Oc2c(I)cc(C[C@H](N)CO)cc2I)ccc1O	–
60	–	N[C@H](CO)Cc1cc(I)c(Oc2ccc(O)c(I)c2)c(I)c1	–
40	–	NC(=O)CN(Cc1ccc(O)cc1)C(=O)CN(CCO)C(=O)CN[C@H](CO)Cc1cc(I)c(Oc2ccc(O)cc2)c(I)c1	–
231	–	O=C(CCc1cc(I)c(Oc2ccc(O)cc2)c(I)c1)N1CCCCC1	–
780	–	CNC(=O)Cc1cc(I)c(Oc2ccc(O)cc2)c(I)c1	–

Ki [2] [nM]	IC50 (SK-N-AS [3]) [nM]	SMILES	other results
–	21600	O=C(CNC(=O)c1cccc2ccccc12)Nc1cccc(Oc2ccncc2)c1	–
240	–	NC[C@@H](N)Cc1cc(I)c(Oc2ccc(O)cc2)c(I)c1	–
–	192	O=C(CNC(=O)c1cccc2ccccc12)Nc1ccccc1Oc1cccc(O)c1	IC50 (SK-N-DZ): 539 nM; IC50 [4]: 485 nM
10	–	N[C@H](CNC(=O)NCc1ccccc1)Cc1cc(I)c(Oc2ccc(O)cc2)c(I)c1	–
1920	–	CS(=O)(=O)NC(=O)CCc1cc(I)c(Oc2ccc(O)cc2)c(I)c1	–
114	–	NCc1ccc(CN(CC(N)=O)C(=O)CN(CCO)C(=O)CN[C@H](CO)Cc2cc(I)c(Oc3ccc(O)cc3)c(I)c2)cc1	IC50 [1]: 1180 nM
–	91	COc1ccc(Oc2ccccc2NC(=O)CNC(=O)c2cccc3ccccc23)cc1	IC50 (SK-N-DZ): 271 nM; IC50 [4]: 234 nM
> 4810	–	O=C1CN(C(=O)CCc2cc(I)c(Oc3ccc(O)cc3)c(I)c2)CCN1	–
870	–	O=C1CN(C(=O)Cc2cc(I)c(Oc3ccc(O)cc3)c(I)c2)CCN1	–
720	–	CN(C)C(=O)Cc1cc(I)c(Oc2ccc(O)cc2)c(I)c1	–
150	–	Cc1noc(C)c1S(=O)(=O)N[C@H](CO)Cc1cc(I)c(Oc2ccc(O)cc2)c(I)c1	–
910	–	COc1ccc(Oc2c(I)cc(CCC(=O)N3CCCCC3)cc2I)cc1	–
540	–	O=C1NC[C@H](Cc2cc(I)c(Oc3ccc(O)cc3)c(I)c2)N1	–
–	> 30000	O=C(CNC(=O)c1nccc2ccccc12)Nc1ccc(Oc2ccncc2)cc1	–
570	–	O=S(=O)(N[C@H](CO)Cc1cc(I)c(Oc2ccc(O)cc2)c(I)c1)c1ccccc1	–
120	–	CCCCCCNC(=O)NC[C@@H](N)Cc1cc(I)c(Oc2ccc(O)cc2)c(I)c1	–
130	–	N[C@H](CNC(=O)CO)Cc1cc(I)c(Oc2ccc(O)cc2)c(I)c1	–

The remaining lines, values behind:

SMILES	Ki [2] [nM]	IC50 (SK-N-AS [3]) [nM]	other results
NC(=O)CN(Cc1ccc(CO)cc1)C(=O)CNC(=O)CN[C@H](CO)Cc1cc(I)c(Oc2ccc(O)cc2)c(I)c1	–	–	IC50 [1]: 5560 nM
COc1cccc(Oc2ccccc2NC(=O)CNC(=O)Cc2cccc3ccccc23)c1	–	> 10000	–
O=C(CNC(=O)c1cccc2ccccc12)Nc1ccc(Cl)cc1Oc1ccccc1	–	185	IC50 (SK-N-DZ): 447 nM; IC50 [4]: 500 nM
O=C(CNC(=O)c1nccc2ccccc12)Nc1ccccc1Oc1ccncc1	–	42000	–
COc1cccc(Oc2ccccc2NC(=O)CNC(=O)c2cccc3ccccc23)c1	–	125	IC50 (SK-N-DZ): 288 nM; IC50 [4]: 236 nM
O=C(CNC(=O)c1cccc2ccccc12)Nc1ccccc1Oc1ccccc1	–	100	IC50 (SK-N-DZ): 237 nM; IC50 [4]: 325 nM
C[C@H](NC(=O)c1cccc2ccccc12)C(=O)Nc1ccccc1Oc1ccccc1	–	–	IC50 (SH-SY5Y): 4000 nM
CC(C)[C@H](NC(=O)c1cccc2ccccc12)C(=O)Nc1ccccc1Oc1ccccc1	–	–	IC50 (SK-N-AS [5]): > 10000 nM
O=C(CNC(=O)c1cncc2ccccc12)Nc1cccc(Oc2ccncc2)c1	–	> 30000	–
O=C(CNC(=O)c1cccc2ccccc12)Nc1c(Cl)cccc1Oc1ccccc1	–	> 10000	IC50 (SK-N-DZ): > 10000 nM; IC50 [4]: > 10000 nM
O=C(CNC(=O)c1cncc2ccccc12)Nc1ccccc1Oc1ccccc1	–	> 30000	–
COc1cccc(Oc2ccccc2NC(=O)CNC(=O)CCc2cccc3ccccc23)c1	–	> 10000	–
CC(C)[C@@H](NC(=O)c1cccc2ccccc12)C(=O)Nc1ccccc1Oc1ccccc1	–	–	IC50 (SK-N-AS [5]): > 10000 nM
NCCCC[C@H](NC(=O)c1cccc2ccccc12)C(=O)Nc1ccccc1Oc1ccccc1	–	–	IC50 (SK-N-AS [5]): > 10000 nM
O=C(Nc1ccccc1Oc1ccccc1)c1cccc2ccccc12	–	–	IC50 (SK-N-AS [5]): > 10000 nM
COc1cc(C(=O)N2CCC(N3CCN(C)CC3)CC2)ccc1Nc1ncc2c(n1)N(C)c1ccccc1C(=O)N2C	–	–	IC50 (Jurkat): 5900 nM; IC50 (HepG2): 89100 nM; IC50 (HCT-116): 9250 nM; IC50 (MCF7): 42800 nM; IC50 (HeLa [6]): 13500 nM
O=C(CNC(=O)c1cccc2ccccc12)Nc1ccccc1Cc1ccccc1	–	1100	–
O=C(O)CC[C@H](NC(=O)c1cccc2ccccc12)C(=O)Nc1ccccc1Oc1ccccc1	–	–	IC50 (SK-N-AS [5]): > 10000 nM
COc1cccc(Oc2ccccc2NC(=O)CNC(=O)c2ccc(-c3ccccc3)cc2)c1	–	> 10000	–
O=C(CNC(=O)c1nccc2ccccc12)Nc1ccccc1Oc1ccccc1	–	35000	–
O=C(CNC(=O)c1cccc2ccccc12)Nc1ccccc1Oc1ccncc1	–	> 50000	–
COc1cccc(Oc2ccccc2NC(=O)CNC(=O)c2c(C)cc(C)cc2C)c1	–	–	IC50 (HeLa [7]): 6500 nM; IC50 (A673): 5500 nM; IC50 (A549): 4700 nM
NCCCC[C@@H](NC(=O)c1cccc2ccccc12)C(=O)Nc1ccccc1Oc1ccccc1	–	–	IC50 (SK-N-AS [5]): > 10000 nM
O=C(CNC(=O)c1cncc2ccccc12)Nc1ccccc1Oc1ccncc1	–	> 30000	–
O=C(CCNC(=O)c1cccc2ccccc12)Nc1ccccc1Oc1ccccc1	–	–	IC50 (SK-N-AS [5]): > 10000 nM
O=C(O)CC[C@@H](NC(=O)c1cccc2ccccc12)C(=O)Nc1ccccc1Oc1ccccc1	–	–	IC50 (SK-N-AS [5]): > 10000 nM
COc1cccc(Oc2ccccc2NC(=O)[C@H](C)NC(=O)c2cccc3ccccc23)c1	–	–	IC50 (SK-N-AS [5]): > 10000 nM
